This is an account of results in PubChem BioAssay (NCI).

Where “and” joins values, the source holds several entries; their conditions need not be identical. Equal entries are not always repeated.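 Briefly, cells in 96-well plates were exposed to five compound concentrations for 48 h, and endpoints were estimated by linear interpolation. The concentration for 50% growth inhibition is given as GI50. TGI marks complete inhibition of growth.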

Common to all, as to assay: NCI anticancer screen, dose series, 48 h
The subject of assay [1] is HOP-92 NSCLC.
In assay [2] the test system is NCI-H522 lung.
The test system of assay [3] is RPMI-8226 leukemia.
Assay [4] has as its system A549 NSCLC.
In assay [5] the test system is CAKI-1 renal.
The subject of assay [6] is SNB-75 CNS.
Assay [7] has as its system KM12 colon.
Assay [8] concerns HT29 colon.
Assay [9] deals with IGROV1 ovarian.
Assay [10] relates to A498 renal.

As for `CCN(c1cccc(NC(=S)Nc2ccccc2N(CC)c2cc(-c3ccccc3)no2)c1)c1cc(-c2ccccc2)no1`, the TGI in [1], in [2], in assay [3], in assay [4], in [5] and in [6] was above 100 µM throughout. The TGI in [7], in assay [8] and in assay [9] was above 100 µM each time.
`COc1ccc(N=C2C(=Nc3ccc(OC)cc3)N(c3ccccc3)C(=S)N2N=C=C2Sc3ccccc3N2C)cc1`: the TGI in [1], in [2], in assay [3], in assay [4], in assay [5] and in [7] was above 100 µM throughout. Also, the TGI in assay [8] and in assay [9] was above 100 µM in each case.
For `Brc1c(C#CCC2CCCCC2)ccc(C#CCC2CCCCC2)c1Br`, the TGI in assay [1], in assay [2], in assay [3], in assay [4], in [5] and in assay [6] was above 100 µM each time. Moreover, the TGI in [7], in assay [9] and in assay [10] was above 100 µM in each case.
Turning to `COc1ccc(/C=C2\CN(C)C/C(=C\c3ccc(OC)c(OC)c3OC)C2=O)c(OC)c1OC`, the TGI in assay [1] turned out to be 1.73 µM; in assay [2], 0.473 µM; in assay [3] it was 0.211 µM; in [4] it was 1.07 µM; in assay [5], 1.55 µM; in [6] it was 2.64 µM. For the same compound, the TGI in assay [9] stood at 1.07 µM; in assay [10] it was 0.313 µM.
With `CCOC(=O)[C@H](Cc1ccc(O)cc1)N=C1[C@H]2CCC[C@]1(O)[C@@](C)([N+](=O)[O-])C2`, the TGI in [1], in assay [2], in assay [3], in assay [4], in [5] and in assay [7] was above 100 µM throughout. Besides, the TGI in [8], in [9] and in assay [10] was above 100 µM each time.
On to `COc1ccc(C(=O)c2[nH]c(Nc3ccc(Cl)cc3)c(C(=S)Nc3ccccc3)c2N)cc1`, for which the TGI in assay [1], in assay [2], in [4], in assay [5], in [6] and in [7] was above 100 µM throughout. Also, the TGI in [8], in assay [9] and in assay [10] was above 100 µM each time.
As for `COC(=O)c1c(O)ccc2c1C1(Cc3ccccc3C1=O)C(O)O2` (stereo not drawn), the TGI in assay [1] came to 60.2 µM; in [2], 18.1 µM; in assay [3], 17.3 µM; in assay [4], 69.9 µM; in assay [5], 61.8 µM; in assay [7] it was 69.1 µM. Further, the TGI in assay [8] is above 100 µM; in assay [9], 36.3 µM; in [10], above 100 µM.
`FC(F)(F)c1ccc2nc(Sc3ccccn3)cnc2c1`: the TGI was above 100 µM in assay [1]; 43.7 µM in assay [2]; above 100 µM in [4]; above 100 µM in [5]; 96.1 µM in assay [6]; above 100 µM in [7]. The TGI in assay [8] is above 100 µM; in [9] it was above 100 µM; in assay [10] it was 54.1 µM.
As to `CCOP(=O)(OCC)C(C)(CC)NC` (stereo not drawn), the TGI in assay [1], in [2], in assay [4], in [5], in [6] and in assay [7] was above 100 µM throughout. Also, the TGI in [8], in [9] and in assay [10] was above 100 µM throughout.
On to `C/C1=C\[C@@H](O)C(=O)/C=C/C=C\c2csc(n2)[C@@H](C)NC(=O)C[C@@]2(CC1)S(=O)SC(=O)[C@]2(C)O` (stereo partly drawn), for which the TGI was 0.011 µM in assay [1]; 0.0105 µM in assay [2]; above 100 µM in [3]; 0.713 µM and 0.368 µM in assay [4]; 0.0191 µM in [5]; 0.0995 µM and 0.0219 µM in [6]. Also, the TGI was 0.552 µM and 0.23 µM in assay [9]; 0.0272 µM in [10]. The figures for the GI50 in assay [3] and in assay [9] were above 100 µM and 0.0237 µM, respectively.
For the compound `CCC(c1c[nH]c2ccc(Br)cc12)c1c[nH]c2ccc(Br)cc12`, the TGI in [1] worked out at 8.3 µM; in [2], 18.1 µM; in [3], 11.3 µM; in assay [4], 15 µM; in assay [5], 6.58 µM; in assay [7], 4.22 µM. In addition, the TGI in assay [8] came out at 10.4 µM; in assay [9] it was 19 µM; in [10] it was 13.3 µM.
